According to patent publication US7829665B2 (priority 2005, dated 2010):
Where two headings read alike, the source gives them in different places.

Biological target: T1, full-length NS3/NS4A-2 (HCV NS3 protease) (Hepatitis C virus genotype 1a, UniProt P27958)
T1 construct: Recombinant E. coli or Baculovirus full-length NS3 was diluted to 3.33 μM with assay buffer; made in house; host or cells: E. coli or baculovirus (BV) expression system
Experiment: NS3-NS4 protease assay / NS3 inhibition assay (RETS1 substrate, fluorescence kinetic read)
Type: biochemical
Details: read-out: NS3-NS4 IC50
Description: NS3 complex formation with NS4A-2.
Recombinant E. coli or Baculovirus full-length NS3 was diluted to 3.33 μM with assay buffer and transferred material to an eppendorf tube and place in water bath in 4° C. refrigerator. The appropriate amount of NS4A-2 to 8.3 mM in assay buffer was added to equal the volume of NS3 in step 2.1.1 (conversion factor—3.8 mg/272 μL assay buffer). The material was transferred to an eppendorf tube and place in water bath in 4° C. refrigerator.
After equilibration to 4° C., equal volumes of NS3 and NS4A-2 solutions were combined in an eppendorf tube, mix gently with a manual pipettor, and incubate mixture for 15 minutes in the 4° C. water bath. Final concentrations in the mixture are 1.67 μM NS3, 4.15 mM NS4A-2 (2485-fold molar excess NS4A-2).
After 15 minutes at 4° C., the NS3/NS4A-2 eppendorf tube was removed and place it in a room temperature water bath for 10 minutes. NS3/NS4A-2 was alliquoted at appropriate volumes and store at −80° C. (E. coli NS3 run at 2 nM in assay, aliquot at 25 μL. BV NS3 run at 3 nM in assay, aliquot at 30 μL).
Sample compounds were dissolved to 10 mM in DMSO then diluted to 2.5 mM (1:4) in DMSO. Typically, compounds were added to an assay plate at 2.5 mM concentration, yielding upon dilution a starting concentration of 50 microM in the assay inhibition curve. Compounds were serial diluted in assay buffer to provide test solutions at lower concentrations.
The E. coli. NS3/NS4A-2 was diluted to 4 nM NS3 (1:417.5 of 1.67 μM stock−18 μL 1.67 μM stock+7497 μL assay buffer). The BV NS3/NS4A-2 was diluted to 6 nM NS3 (1:278.3 of 1.67 μM stock−24 μL 1.67 μM stock+6655 μL assay buffer). Using the manual multichannel pipettor, careful not to introduce bubbles into the plate, add 50 μL assay buffer to wells A01-H01 of a black Costar 96-well polypropylene storage plate.
Using the manual multichannel pipettor, careful not to introduce bubbles into the plate, add 50 μL of diluted NS3/NS4A-2 from step 2.2.6 to wells A02-H12 of plate in step 2.2.7. Using the manual multichannel pipettor, careful not to introduce bubbles into the plate, transfer 25 μL of the wells in drug dilution plate in step 2.2.5 to corresponding wells in assay plate in step 2.2.8. Change tips on multichannel pipettor for each row of compounds transferred. Using the manual multichannel pipettor, careful not to introduce bubbles into the plate, mix the wells from the assay plate in step 2.2.9 by aspirating and dispensing 35 μL of the 75 μL in each well five times. Change tips on multichannel pipettor for each row of wells mixed. Cover plate with a polystyrene plate lid and pre-incubate the plate from step 2.2.10 containing NS3 protease and sample compounds 10 minutes at room temperature. While plate from step 2.2.11 is pre-incubating, dilute RETS1 substrate in a 15 mL polypropylene centrifuge tube. Dilute RETS1 substrate to 8 μM (1:80.75 of 646 μM stock−65 μL 646 μM stock+5184 μL assay buffer).
After the plate in step is done pre-incubating, and using the manual multichannel, add 25 μL of substrate to all wells on the plate. Quickly mix the plate as in step 2.2.10, mixing 65 μL of the 100 μL in the wells.
Read the plate in kinetic mode on the Molecular Devices SpectraMax Gemini XS plate reader. Reader settings: Read time: 30 minutes, Interval: 36 seconds, Reads: 51, Excitation λ: 335 nm, Emission λ: 495 nm, cutoff: 475 nm, Automix: off, Calibrate: once, PMT: high, Reads/well: 6, Vmax pts: 21 or 28/51 depending on length of linearity of reaction
IC50 s are determined using a four parameter curve fit equation, and converted to Ki's using the following Km's: • Full-length E. coli NS3—2.03 μM • Full-length BV NS3—1.74 μM where Ki=IC50/(1+[S]/Km)) • Quantitation by ELISA of the selectable marker protein, Neomycin phosphotransferase II (NPTII) in the HCV Sub-Genomic Replicon, GS4.3

[1] = recombinant E. coli or Baculovirus full-length NS3 with NS4A-2

T1 sequence (P27958 1027-1657): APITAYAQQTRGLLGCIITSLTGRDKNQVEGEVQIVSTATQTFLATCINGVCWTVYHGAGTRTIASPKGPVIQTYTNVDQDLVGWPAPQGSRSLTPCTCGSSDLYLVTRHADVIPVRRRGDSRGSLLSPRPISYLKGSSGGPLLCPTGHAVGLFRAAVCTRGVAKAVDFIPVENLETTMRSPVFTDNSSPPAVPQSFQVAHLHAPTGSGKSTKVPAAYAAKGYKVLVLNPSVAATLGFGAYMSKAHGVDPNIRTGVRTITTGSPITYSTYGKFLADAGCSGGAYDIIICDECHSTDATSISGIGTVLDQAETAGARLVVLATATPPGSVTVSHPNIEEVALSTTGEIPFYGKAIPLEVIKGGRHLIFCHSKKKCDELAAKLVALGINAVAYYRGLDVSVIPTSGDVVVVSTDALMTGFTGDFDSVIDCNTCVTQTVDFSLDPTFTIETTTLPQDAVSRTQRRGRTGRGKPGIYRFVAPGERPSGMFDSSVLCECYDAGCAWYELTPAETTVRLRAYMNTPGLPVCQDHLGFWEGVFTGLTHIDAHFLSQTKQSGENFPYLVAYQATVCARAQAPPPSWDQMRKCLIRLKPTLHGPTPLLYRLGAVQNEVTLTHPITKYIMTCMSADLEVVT

| SMILES | IC50 [1] | further results |
| --- | --- | --- |
| N[C@H]1CCCCC/C=C\[C@@H]2C[C@@]2(C(=O)NS(=O)(=O)Nc2ccc(Cl)cc2)NC(=O)[C@@H]2C[C@@H](OC(=O)N3Cc4ccccc4C3)CN2C1=O [Compound 203] | < 1 µM |  |
| Cc1ccc(NC(=O)[C@@]23C[C@H]2/C=C\CCCCC[C@H](NC(=O)OC(C)(C)C)C(=O)N2CCC[C@H]2C(=O)N3)cc1 [Compound 2316] |  | IC50 (Table 22): < 1 µM |
| CC(C)(C)OC(=O)N[C@H]1CCCCC/C=C\[C@@H]2C[C@@]2(C(=O)NCC2CC2)NC(=O)[C@@H]2CCCN2C1=O [Compound 2302] |  | IC50 (Table 22): < 10 µM |
| CNC(=O)NC(=O)[C@@]12C[C@H]1/C=C\CCCCC[C@H](NC(=O)OC(C)(C)C)C(=O)N1C[C@H](OC(=O)N3Cc4ccccc4C3)C[C@H]1C(=O)N2 [Compound 703] | < 1 µM |  |
| CC(C)(C)OC(=O)N[C@H]1CCCCC/C=C\[C@@H]2C[C@@]2(C(=O)NC(=O)Nc2ccccc2)NC(=O)[C@@H]2C[C@@H](OC(=O)N3Cc4ccccc4C3)CN2C1=O [Compound 704] | < 10 µM |  |
| O=C(N[C@H]1CCCCC/C=C\[C@@H]2C[C@@]2(C(=O)O)NC(=O)C2Cc3cc(Oc4cccc(Cl)c4)ccc3CN2C1=O)OC1CCCC1 (stereo partly shown) [Compound 2002, (Z)-15-(3-chlorophenoxy)-9-(cyclopentyloxycarbonyl)-10,18-dioxo-1a,4,5,6,7,8,9,10,12,17,17a,18,19,19a-tetradecahydro-1H-11,14-diaza-bicyclo[13.1.0]hexadeca-1(16), 2-dieno[11,12-b]isoquinoline-19a-carboxylic acid] | < 10 µM |  |
| CC(C)(C)OC(=O)N[C@H]1CCCCC/C=C\[C@@H]2C[C@@]2(C(=O)NS(=O)(=O)c2ccc(C#N)cc2)NC(=O)[C@@H]2CCCN2C1=O [Compound 2134] | < 1 µM |  |
| CCOc1ccc2sc(S(=O)(=O)NC(=O)[C@@]34C[C@H]3/C=C\CCCCC[C@H](NC(=O)OC(C)(C)C)C(=O)N3CCC[C@H]3C(=O)N4)nc2c1 [Compound 306] | > 10 µM |  |
| CC(C)(C)OC(=O)N[C@H]1CCCCC/C=C\[C@@H]2C[C@@]2(C(=O)N[S@@+]([O-])C(C)(C)C)NC(=O)[C@@H]2CCCN2C1=O [Compound 2401, (1S,4R,6S,14S)tert-Butyl 4-((S)-2-methylpropane-2-sulfinyl)-aminocarbonyl-2,15-dioxo-3,16-diaza-tricyclo[14.3.0.0^4,6]nonadec-7-ene-14-yl carbamate] | < 0.1 µM |  |
| CC(C)(C)OC(=O)N[C@H]1CCCCC/C=C\[C@@H]2C[C@@]2(C(=O)NS(=O)(=O)C2(C)CC2)NC(=O)[C@@H]2CCCN2C1=O [Compound 300, (1S,4R,6S,14S) tert-butyl 4-Cyclopropanesulfonylaminocarbonyl-2,15-dioxo-3,16-diaza-tricyclo[14.3.0.0^4,6]nonadec-7-ene-14-yl carbamate] | < 1 µM |  |
| CNS(=O)(=O)NC(=O)[C@@]12C[C@H]1/C=C\CCCCC[C@H](NC(=O)OC(C)(C)C)C(=O)N1CCC[C@H]1C(=O)N2 [Compound 2213] | < 10 µM |  |
| CN(Cc1ccc(Cl)cc1)S(=O)(=O)NC(=O)[C@@]12C[C@H]1/C=C\CCCCC[C@H](NC(=O)OC(C)(C)C)C(=O)N1CCC[C@H]1C(=O)N2 [Compound 2230] | < 10 µM |  |
| CC(C)(C)OC(=O)N[C@H]1CCCCC/C=C\[C@@H]2C[C@@]2(C(=O)NCC2CC2)NC(=O)[C@@H]2C[C@@H](OC(=O)N3Cc4ccccc4C3)CN2C1=O [Compound 2501, (1S,4R,6S,14S,18R)-1,3-Dihydro-isoindole-2-carbonyloxylic acid 14-tert-butoxycarbonylamino-4-cyclopropylmethanaminocarbonyl-2,15-dioxo-3,16-diaza-tricyclo[14.3.0.0^4,6]nonadec-7-ene-18-yl ester] |  | IC50 (Table 24): > 10 µM |
| CC(C)(C)OC(=O)N[C@H]1CCCCC/C=C\[C@@H]2C[C@@]2(C(=O)NS(=O)(=O)c2ccc3ccccc3c2)NC(=O)[C@@H]2CCCN2C1=O [Compound 2130] | < 10 µM |  |
| O=C(N[C@H]1CCCCC/C=C\[C@@H]2C[C@@]2(C(=O)NS(=O)(=O)Nc2ccc(Cl)cc2)NC(=O)[C@@H]2CCCN2C1=O)C1CCC1 [Compound 427] | > 10 µM |  |
| COc1ccc(S(=O)(=O)NC(=O)[C@@]23C[C@H]2/C=C\CCCCC[C@H](NC(=O)OC2CCCC2)C(=O)N2C[C@H](OC(=O)N4CCc5ccccc5C4)C[C@H]2C(=O)N3)cc1 [Compound 120] | < 0.1 µM |  |

| SMILES | IC50 [1] | further results |
| --- | --- | --- |
| CC(C)(C)OC(=O)N[C@H]1CCCCC/C=C\[C@@H]2C[C@@]2(C(=O)NS(=O)(=O)Nc2ccccc2Cl)NC(=O)[C@@H]2CCCN2C1=O [Compound 2233] | < 1 µM |  |
| CC(C)(C)OC(=O)N[C@H]1CCCCC/C=C\[C@@H]2C[C@@]2(C(=O)NS(=O)(=O)NCCc2ccccc2)NC(=O)[C@@H]2CCCN2C1=O [Compound 2228] | < 10 µM |  |
| CC[C@@H]1C[C@H]2C(=O)N[C@]3(C(=O)NS(=O)(=O)Nc4ccc(Cl)cc4)C[C@H]3/C=C\CCCCC[C@H](NC(=O)C3CC3)C(=O)N2C1 [Compound 429] | < 10 µM |  |
| COc1ccccc1CCNS(=O)(=O)NC(=O)[C@@]12C[C@H]1/C=C\CCCCC[C@H](NC(=O)OC(C)(C)C)C(=O)N1CCC[C@H]1C(=O)N2 [Compound 415] | > 10 µM |  |
| CCOC(=O)[C@@]12C[C@H]1/C=C\CCCCC[C@H](Nc1c(N3CCC3)c(=O)c1=O)C(=O)N1C[C@H](OC(=O)N3Cc4cccc(F)c4C3)C[C@H]1C(=O)N2 [Compound 645] | < 0.1 µM |  |
| CC(C)(C)OC(=O)N[C@H]1CCCCC/C=C\[C@@H]2C[C@@]2(C(=O)NS(=O)(=O)c2cccc(C(F)(F)F)c2)NC(=O)[C@@H]2CCCN2C1=O [Compound 2149] | < 10 µM |  |
| CC(C)(C)OC(=O)N[C@H]1CCCCC/C=C\[C@@H]2C[C@@]2(C(=O)NS(=O)(=O)N2CCc3ccccc3C2)NC(=O)[C@@H]2CCCN2C1=O [Compound 408] | < 10 µM |  |
| CC(C)(C)OC(=O)N[C@H]1CCCCC/C=C\[C@@H]2C[C@@]2(C(=O)NS(=O)(=O)N2CCCCC2c2cccnc2)NC(=O)[C@@H]2CCCN2C1=O (stereo partly shown) [Compound 2222] | < 1 µM |  |
| CC(C)(C)OC(=O)N[C@H]1CCCCC/C=C\[C@@H]2C[C@@]2(C(=O)NS(=O)(=O)C2(Cc3ccccc3)CC2)NC(=O)[C@@H]2CCCN2C1=O [Compound 301] | < 10 µM |  |
| CC(C)(C)OC(=O)N[C@H]1CCCCC/C=C\[C@@H]2C[C@@]2(C(=O)NS(=O)(=O)Cc2ccccc2)NC(=O)[C@@H]2CCCN2C1=O [Compound 2135] | < 1 µM |  |
| CC(C)(C)OC(=O)N[C@H]1CCCCC/C=C\[C@@H]2C[C@@]2(C(=O)NS(=O)(=O)NCCc2ccc3ccccc3c2)NC(=O)[C@@H]2CCCN2C1=O [Compound 421] | > 10 µM |  |
| CC(C)(C)OC(=O)N[C@H]1CCCCC/C=C\[C@@H]2C[C@@]2(C(=O)NS(=O)(=O)Nc2ccc(Cl)cc2Cl)NC(=O)[C@@H]2CCCN2C1=O [Compound 410] | > 10 µM |  |
| COC(=O)c1csc(S(=O)(=O)NC(=O)[C@@]23C[C@H]2/C=C\CCCCC[C@H](NC(=O)OC(C)(C)C)C(=O)N2CCC[C@H]2C(=O)N3)c1OC [Compound 310] | > 10 µM |  |
| CC(C)(C)OC(=O)N[C@H]1CCCCC/C=C\[C@@H]2C[C@@]2(C(=O)NS(=O)(=O)c2ccc(F)cc2)NC(=O)[C@@H]2CCCN2C1=O [Compound 2114] | < 10 µM |  |
| O=C(N[C@H]1CCCCC/C=C\[C@@H]2C[C@@]2(C(=O)NS(=O)(=O)Nc2ccc(Cl)cc2)NC(=O)[C@@H]2CCCN2C1=O)C1CC1 [Compound 428] | < 10 µM |  |
